Test results taken from patent US20210277102A1, “COMPOSITIONS AND METHODS FOR TREATING A TUMOR SUPPRESSOR DEFICIENT CANCER” (BETH ISRAEL DEACONESS MEDICAL CENTER, INC., priority 2016, published 2021).
“Also recorded” adds a separate entry of the source.

Test system: Pten^pc−/−; Trp53^pc−/− prostate tumors
Test: In vivo drug and antibody treatment of Pten^pc−/−; Trp53^pc−/− mice (MRI, flow cytometry, histology)
Parameters: species or system mouse
Experimental: Mice were allocated at random to experimental groups and studies were performed in an unblended manner. For treatment with the CXCR2 antagonist, SB225002 (Cayman Chemical #13336) was dissolved in DMSO (10 mg/ml) and diluted in vehicle (0.9% NaCl, 0.3% Tween 80) for in vivo administration. Mice (4 months of age) were treated daily for 10 days by intraperitoneal injection (5 mg/kg) and prostate tumor tissue (anterior lobes) was subjected to Flow Cytometry and histological analysis. For MRI analysis, mice (4 months of age) were treated daily for 21 days (Pten^pc-/-; Zbtb7a^pc-/-), for 14 days (Pten^pc-/-; Trp53^pc-/-) or for 14 days (Pten^pc-/-; Pml^pc-/-) by intraperitoneal injection (5 mg/kg). For depletion of Gr-1+/CD11b+ cells, Ly6G-depletion antibody (1A8, BioXcell) and control Rat IgG2a antibody (BioXcell) were diluted in phosphate-buffered saline (PBS) for in vivo administration. Mice (4 months of age) were treated every other day for 10 days by intraperitoneal injection (200-300 μg/mouse). InVivoMAb anti-mouse Ly6G/Ly6C (Gr-1) antibody, clone RB6-8C5 (BE0075, BioXcell), and control Rat IgG2b antibody (BE0090, BioXcell) were diluted in PBS and Pten^pc-/-; Trp53^pc-/- mice were treated every other day for 14 days by intraperitoneal injection (200 μg/mouse). For neutralization of CXCL5, anti-Mouse CXCL5 antibody (Leinco Technologies) and control Rat IgG2a antibody (BioXcell) were diluted in PBS and injected every other day for 21 days by intraperitoneal injection (20 μg/mouse). Tumor volume quantification was performed by using VivoQuant and Image J software. All mouse prostate MRI imaging analysis was performed at Small Animal Imaging Core at BIDMC and acquired on an […] Model M2 1T tabletop scanner. For western blotting, cell lysates were prepared by homogenizing tumor tissue with NP40 Buffer (Boston Bioproducts) supplemented with protease (Roche) and HALT phosphatase inhibitor cocktails (Thermo Scientific) and subsequently subjected to SDS-Gel separation (Invitrogen) and western blotting. The following antibodies were used for western blotting: […] (AC-74; Sigma), CXCL5 (R & D Systems #AF433), pIRAK4 (Cell Signaling Technology #11927S), IRAK4 (Cell Signaling Technology #4363P), IκBα (Cell Signaling Technology #4812S), Zbtb7a (hamster anti-Zbtb7a clone 13E9), PTEN (Cell Signaling Technology #9559S), p53 (Cell Signaling Technology #2524S), p21 (Santa Cruz Biotechnology sc-6246) and HSP90 (BD Biosciences BDB610419). Western blots were quantified using Image J software. For immunohistochemistry, tissues and organoids were fixed in 4% paraformaldehyde and embedded in paraffin in accordance with standard procedures. Embedding and hematoxylin and eosin staining of sections were performed by the Histology Core at BIDMC and analyzed by a pathologist. […]

[1] = Trp53^pc−/− prostate tumors after treatment

## O=C(Nc1ccc([N+](=O)[O-])cc1O)Nc1ccccc1Br [SB225002]
Trp53^pc−/− mice, intraperitoneal injection, vs vehicle or control IgG
  tumor growth (tumor volume by MRI): significantly suppressed the tumor growth; also recorded: significant inhibition of tumor growth
[1]
  Treg cells (CD4+/FoxP3+) in tumor (flow cytometry): less Foxp3+ cells; also recorded: less Treg cells
  intra-tumoral Gr-1+/CD11b+ cells (flow cytometry): decrease of Gr-1+/CD11b+ cells
Trp53^pc−/− tumors, anterior prostate lobes
  tumor burden (histological analysis): reduced tumor burden; also recorded: significantly diminished tumor involvement
